# According to the NIST ThermoML archive (doi:10.1021/acs.jced.8b00168):
# “And” between values parts separate entries of the source, which are not always exact repeats. Equal entries are not always repeated. ± gives the expanded uncertainty stated by the source.
# How the values were obtained:
# [1] = Liquid, DSC
# [2] = Boiling temperature at pressure P; details: Liquid, DSC
compound,measurement,setting,value
CCCCCCCCCCCCCCCCO [1-hexadecanol],vapor or sublimation pressure,[1]; 462.29 K,1.73 ± 0.17 kPa and 1.72 ± 0.17 kPa
CCCCCCCCCCCCCC(=O)OC [methyl tetradecanoate],vapor or sublimation pressure,[1]; 437.72 K,1.72 ± 0.19 kPa
CCCCCCCCC(=O)OCC(CO)OC(=O)CCCCCCCC (configuration not stated) [dinonanoin],Boiling temperature at pressure P,[2]; 0.54 kPa,231.07 ± 2.4 °C
same,Boiling temperature at pressure P,[2]; 1.42 kPa,253.1 ± 3.1 °C
same,Boiling temperature at pressure P,[2]; 1.74 kPa,258.40 ± 2.4 °C
same,Boiling temperature at pressure P,[2]; 2.14 kPa,263.86 ± 2.6 °C
same,Boiling temperature at pressure P,[2]; 2.63 kPa,269.97 ± 2.8 °C
same,vapor or sublimation pressure,[1]; 532.03 K,1.7 ± 0.19 kPa
"CCCCCCCCC(=O)OCC(O)CO (configuration not stated) [2,3-dihydroxypropyl nonanoate]",vapor or sublimation pressure,[1]; 478.88 K,1.69 ± 0.19 kPa
"CCCC(=O)OCC(COC(=O)CCC)OC(=O)CCC [1,2,3-propanetriyl tributanoate]",vapor or sublimation pressure,[1]; 459.56 K,1.69 ± 0.19 kPa
CCCCCCCCCCCCCCCCCCO [1-octadecanol],vapor or sublimation pressure,[1]; 483.46 K,1.73 ± 0.19 kPa
CCCCCCCCCCCCCCCCCCCCCCCCCCCC [octacosane],vapor or sublimation pressure,[1]; 550.62 K,1.7 ± 0.17 kPa
